Test system: C57BL/6 mice and Best2^+/+, Best2^+/−, Best2^−/− littermates
Assay: IOP measurement by cannulation of the anterior chamber in control and drug-treated Best2 mice
Type: in vivo, mouse
Conditions: for Mean IOP: 10 μL of solution topically to each eye 2 hours before cannulation, mean ± SE
Description: IOP Measurements: IOP was measured in the mice by cannulation of the anterior chamber with Avertin® anesthesia (300 mg/kg injected intraperitoneally) as described in, e.g., Husain et al., Exp. Eye Res. 83:1453-1458, 2006; John et al., Invest. Ophthalmol. Vis. Sci. 38:249-253, 1997; Aihara et al., Invest. Ophthalmol. Vis. Sci. 44:5168-5173, 2003. In brief, the anterior chamber was cannulated with a borosilicate glass microneedle (1-mm outer diameter with a 50-μm inner diameter tip, beveled to 45°; Humagen, Charlottesville, Va.) filled with Hanks' balanced salt solution (HBSS) and connected to a pressure transducer (BLPR; World Precision Instruments, Sarasota, Fla.). The signal was amplified (Bridge8 amplifier; World Precision Instruments), converted from analog to digital (iWorx® model 108 converter; CB Sciences, Dover, N.H.), and recorded (LabScribe software ver. 1.6; CB Sciences, Dover, N.H.). IOP was recorded for a period of >90 seconds, and the IOP value determined from the average of each recording. […] All measurements were performed between 2 and 6 PM to avoid diurnal pressure variations. The apparatus was calibrated using a fluid reservoir the height of which could be adjusted to generate a series of known pressures. For experiments using timolol (0.5% solution; Bausch & Lomb, Tampa, Fla.) or brinzolamide (Azopt® 1% solution; Alcon, Fort Worth, Tex.), 10 μL of solution was administrated topically to each eye 2 hours before cannulation.

SMILES	IOP after treatment compared with treated C57BL/6 or Best2^+/+ mice (Best2^+/+ (so in the source) and Best2^−/− mice, lower than in C57BL/6 or Best2^+/+ mice)	Mean IOP (Best2^+/+ mice) [mm Hg]	Mean IOP (Best2^+/− mice) [mm Hg]	Mean IOP (Best2^−/− mice) [mm Hg]	Mean IOP (C57BL/6 mice) [mm Hg]	Effect on IOP (in words) (all mice tested)	Effect on IOP (in words) (Best2^−/− mice)	Effect on IOP (in words) (C57BL/6 and Best2^+/+ mice, P<0.005)
CCN[C@H]1CN(CCCOC)S(=O)(=O)c2sc(S(N)(=O)=O)cc21 [Brinzolamide, brinzolamide]	approximately 1 mm Hg	10.08 ± 0.33	9.56 ± 0.37	9.34 ± 0.34	10.51 ± 0.51	effective in lowering IOP in all mice tested		
CC(C)(C)NC[C@H](O)COc1nsnc1N1CCOCC1 [Timolol, timolol]		9.57 ± 0.22	9.48 ± 0.12	9.49 ± 0.18	10.53 ± 0.29		less effective in lowering IOP	lowered IOP significantly

— US20090148886A1, “METHODS OF IDENTIFYING COMPOUNDS THAT DECREASE INTRAOCULAR PRESSURE” (The Arizona Board of Regents on behalf of the University of …, priority 2007, published 2009)
